According to patent publication US10954252B1, “Inhibitors of human immunodeficiency virus replication” (ViiV HEALTHCARE UK (NO.5) LIMITED, priority 2017, dated 2021):
Where a name gives a salt, the structure may show the parent alone.

How the values were obtained:
Format in all cases: cell-based
uninfected MT2 cells = assay: Compound cytotoxicity, XTT-based colorimetric assay; conditions: Table 1a, day 4, XTT
Procedure, shortened: (§1)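 CC50 from uninfected MT2 cells run under the antiviral-assay protocol without virus. Viability read on day 4 by XTT colorimetric assay.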

[1] = tested on: recombinant NL4-3 virus (nef section replaced with Renilla luciferase gene) in MT-2 cells; assay: HIV cell culture assay (antiviral activity, luciferase readout); conditions: MT-2 cells infected for 4-5 days with recombinant NL4-3 luciferase virus
Procedure, shortened: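 NL4-3 reporter virus carrying Renilla luciferase in place of part of nef, produced in 293T cells, was used to infect MT-2 cells for 4-5 days with serial compound dilutions. Luciferase activity was read with a live-cell substrate; EC50 derived from the median effect equation.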

[2] = Compound cytotoxicity, XTT-based colorimetric assay; conditions: human, uninfected MT2 cells, day 4, XTT
Procedure, shortened: as §1

SMILES | CC50 (uninfected MT2 cells) | EC50 ([1]; Table 1a) | CC50 at 4 days ([2]; Table 1a) | EC50 ([1]; Renilla, NL43, Table 1a) | also measured
COc1ccc2c(=O)n(-c3ccc(Cl)c4c(NS(C)(=O)=O)nn(CC(F)F)c34)c([C@H](Cc3cc(F)cc(F)c3)NC(=O)Cn3ccc(C4CC4)n3)nc2n1 (atropisomer, axis not shown) [Example 55.2, N-[(1S)-1-{3-[4-chloro-1-(2,2-difluoroethyl)-3-methanesulfonamido-1H-indazol-7-yl]-7-methoxy-4-oxo-3H,4H-pyrido[2,3-d]pyrimidin-2-yl}-2-(3,5-difluorophenyl)ethyl]-2-(3-cyclopropyl-1H-pyrazol-1-yl)acetamide] | > 1000 nM | 0.33 nM | – | – | –
COc1ccc2c(=O)n(-c3ccc(Cl)c4c(NS(C)(=O)=O)nn(C)c34)c([C@H](Cc3cc(F)cc(F)c3)NC(=O)Cn3ccc(C4CC4)n3)nc2n1 (mixture of isomers) [Example 58.2, N-[(1S)-1-[3-(4-chloro-3-methanesulfonamido-1-methyl-1H-indazol-7-yl)-7-methoxy-4-oxo-3H,4H-pyrido[2,3-d]pyrimidin-2-yl]-2-(3,5-difluorophenyl)ethyl]-2-(3-cyclopropyl-1H-pyrazol-1-yl)acetamide] | > 1000 nM | 0.168 nM | – | – | –
Cn1nc(NS(C)(=O)=O)c2c(Cl)ccc(-n3c([C@H](Cc4cc(F)cc(F)c4)NC(=O)Cn4nc(C(F)F)c5c4C(F)(F)[C@@H]4C[C@H]54)nc4cc(Cl)ccc4c3=O)c21 (mixture of isomers) [Example 168, N—((S)-1-(7-chloro-3-(4-chloro-1-methyl-3-(methylsulfonamido)-1H-indazol-7-yl)-4-oxo-3,4-dihydroquinazolin-2-yl)-2-(3,5-difluorophenyl)ethyl)-2-((3bS,4aR)-3-(difluoromethyl)-5,5-difluoro-3b,4,4a,5-tetrahydro-1H-cyclopropa[3,4]cyclopenta[1,2-c]pyrazol-1-yl)acetamide] | > 1000 nM | 0.058 nM | – | – | –
COc1cccc2nc([C@H](Cc3cc(F)cc(F)c3)NC(=O)Cn3nc(C(F)F)c4c3C(F)(F)[C@@H]3C[C@H]43)n(-c3ccc(Cl)c4c(NS(C)(=O)=O)nn(C)c34)c(=O)c12 (mixture of isomers) [Example 170, N—((S)-1-(3-(4-chloro-1-methyl-3-(methylsulfonamido)-1H-indazol-7-yl)-5-methoxy-4-oxo-3,4-dihydroquinazolin-2-yl)-2-(3,5-difluorophenyl)ethyl)-2-((3bS,4aR)-3-(difluoromethyl)-5,5-difluoro-3b,4,4a,5-tetrahydro-1H-cyclopropa[3,4]cyclopenta[1,2-c]pyrazol-1-yl)acetamide] | > 1000 nM | 0.052 nM | – | – | –
Cn1nc(NS(C)(=O)=O)c2c(Cl)ccc(-n3c([C@H](Cc4cc(F)cc(F)c4)NC(=O)Cn4nc(C(F)F)c5c4C(F)(F)[C@@H]4C[C@H]54)nc4cc(C5CC5)ccc4c3=O)c21 (mixture of isomers) [Example 198, N—((S)-1-(3-(4-chloro-1-methyl-3-(methylsulfonamido)-1H-indazol-7-yl)-7-cyclopropyl-4-oxo-3,4-dihydroquinazolin-2-yl)-2-(3,5-difluorophenyl)ethyl)-2-((3bS,4aR)-3-(difluoromethyl)-5,5-difluoro-3b,4,4a,5-tetrahydro-1H-cyclopropa[3,4]cyclopenta[1,2-c]pyrazol-1-yl)acetamide] | > 1000 nM | 0.15 nM | – | – | –
Cn1nc(NS(C)(=O)=O)c2c(Cl)ccc(-n3c([C@H](Cc4cc(F)cc(F)c4)NC(=O)Cn4nc(C(F)F)c5c4C(F)(F)[C@@H]4C[C@H]54)nc4cc(S(C)(=O)=O)ccc4c3=O)c21 (mixture of isomers) [Example 200, N—((S)-1-(3-(4-chloro-1-methyl-3-(methylsulfonamido)-1H-indazol-7-yl)-7-(methylsulfonyl)-4-oxo-3,4-dihydroquinazolin-2-yl)-2-(3,5-difluorophenyl)ethyl)-2-((3bS,4aR)-3-(difluoromethyl)-5,5-difluoro-3b,4,4a,5-tetrahydro-1H-cyclopropa[3,4]cyclopenta[1,2-c]pyrazol-1-yl)acetamide] | > 1000 nM | 0.2 nM | – | – | –
O=C(Cn1nc(C(F)F)c2c1C(F)(F)[C@@H]1C[C@H]21)N[C@@H](Cc1cc(F)cc(F)c1)c1nc2ccccc2c(=O)n1-c1ccc(S(=O)(=O)N2CCOCC2)cc1 [Example 165, 2-((3bS,4aR)-3-(difluoromethyl)-5,5-difluoro-3b,4,4a,5-tetrahydro-1H-cyclopropa[3,4]cyclopenta[1,2-c]pyrazol-1-yl)-N—((S)-2-(3,5-difluorophenyl)-1-(3-(4-(morpholinosulfonyl)phenyl)-4-oxo-3,4-dihydroquinazolin-2-yl)ethyl)acetamide] | – | – | > 10000 nM | 0.23 nM | –
CSc1nc2nc(C(Cc3cc(F)cc(F)c3)NC(=O)Cn3nc(C(F)F)c4c3C(F)(F)[C@@H]3C[C@H]43)c(-c3ccc(Cl)c4c(NS(C)(=O)=O)nn(C)c34)cc2s1 (stereo partly drawn) [Example 193, N-(1-(6-(4-chloro-1-methyl-3-(methylsulfonamido)-1H-indazol-7-yl)-2-(methylthio)thiazolo[4,5-b]pyridin-5-yl)-2-(3,5-difluorophenyl)ethyl)-2-((3bS,4aR)-3-(difluoromethyl)-5,5-difluoro-3b,4,4a,5-tetrahydro-1H-cyclopropa[3,4]cyclopenta[1,2-c]pyrazol-1-yl)acetamide] | – | – | > 10000 nM | 0.18 nM | –
Cn1nc(NS(C)(=O)=O)c2c(Cl)ccc(-n3c([C@H](Cc4cc(F)cc(F)c4)NC(=O)Cc4c[nH]c5ccc(O)cc45)nc4cc(CS(C)(=O)=O)ccc4c3=O)c21 [Example 203, (S)—N-(1-(3-(4-chloro-1-methyl-3-(methylsulfonamido)-1H-indazol-7-yl)-7-((methylsulfonyl)methyl)-4-oxo-3,4-dihydroquinazolin-2-yl)-2-(3,5-difluorophenyl)ethyl)-2-(5-hydroxy-1H-indol-3-yl)acetamide] | – | 166 nM | > 1000 nM | – | –
CC(C)(c1ccc2c(=O)n(-c3ccc(Cl)c4c(NS(C)(=O)=O)nn(CC(F)F)c34)c([C@H](Cc3cc(F)cc(F)c3)NC(=O)Cn3nc(C(F)F)c4c3C(F)(F)[C@@H]3C[C@H]43)nc2c1)S(C)(=O)=O [Example 213, N—((S)-1-(3-(4-chloro-1-(2,2-difluoroethyl)-3-(methylsulfonamido)-1H-indazol-7-yl)-7-(2-(methylsulfonyl)propan-2-yl)-4-oxo-3,4-dihydroquinazolin-2-yl)-2-(3,5-difluorophenyl)ethyl)-2-((3bS,4aR)-3-(difluoromethyl)-5,5-difluoro-3b,4,4a,5-tetrahydro-1H-cyclopropa[3,4]cyclopenta[1,2-c]pyrazol-1-yl)acetamide] | – | – | > 1000 nM | 0.28 nM | –
CC(C)(c1ccc2c(=O)n(-c3ccc(Cl)c4c(NS(=O)(=O)C5CC5)nn(CC(F)F)c34)c([C@H](Cc3cc(F)cc(F)c3)NC(=O)Cn3nc(C(F)F)c4c3C(F)(F)[C@@H]3C[C@H]43)nc2c1)S(C)(=O)=O [Example 214, N—((S)-1-(3-(4-chloro-3-(cyclopropanesulfonamido)-1-(2,2-difluoroethyl)-1H-indazol-7-yl)-7-(2-(methylsulfonyl)propan-2-yl)-4-oxo-3,4-dihydroquinazolin-2-yl)-2-(3,5-difluorophenyl)ethyl)-2-((3bS,4aR)-3-(difluoromethyl)-5,5-difluoro-3b,4,4a,5-tetrahydro-1H-cyclopropa[3,4]cyclopenta[1,2-c]pyrazol-1-yl)acetamide, TFA] | – | – | > 1000 nM | 0.071 nM | –
CC(C)(C)c1ccc2c(=O)n(-c3ccc(Cl)c4c(NS(C)(=O)=O)nn(CC(F)F)c34)c([C@H](Cc3cc(F)cc(F)c3)NC(=O)Cn3nc(C(F)F)c4c3C(F)(F)[C@@H]3C[C@H]43)nc2c1 [Example 217, N—((S)-1-(7-(tert-Butyl)-3-(4-chloro-1-(2,2-difluoroethyl)-3-(methylsulfonamido)-1H-indazol-7-yl)-4-oxo-3,4-dihydroquinazolin-2-yl)-2-(3,5-difluorophenyl)ethyl)-2-((3bS,4aR)-3-(difluoromethyl)-5,5-difluoro-3b,4,4a,5-tetrahydro-1H-cyclopropa[3,4]cyclopenta[1,2c]pyrazol-1-yl)acetamide] | – | – | > 1000 nM | 0.25 nM | –
CC(C)(C)c1ccc2c(=O)n(-c3ccc(Cl)c4c(NS(=O)(=O)C5CC5)nn(CC(F)F)c34)c([C@H](Cc3cc(F)cc(F)c3)NC(=O)Cn3nc(C(F)F)c4c3C(F)(F)[C@@H]3C[C@H]43)nc2c1 [Example 218, N—((S)-1-(7-(tert-Butyl)-3-(4-chloro-3-(cyclopropanesulfonamido)-1-(2,2-difluoroethyl)-1H-indazol-7-yl)-4-oxo-3,4-dihydroquinazolin-2-yl)-2-(3,5-difluorophenyl)ethyl)-2-((3bS,4aR)-3-(difluoromethyl)-5,5-difluoro-3b,4,4a,5-tetrahydro-1H-cyclopropa[3,4]cyclopenta[1,2-c]pyrazol-1-yl)acetamide] | – | – | > 1000 nM | 0.73 nM | –
C[Si](C)(C)CCOCn1ncc2nc(C(Cc3cc(F)cc(F)c3)NC(=O)Cc3c[nH]c4ccc(F)cc34)c(-c3ccc4scnc4c3)cc21 (stereo not shown) [Int 6a, N-(1-(6-(benzo[d]thiazol-5-yl)-1-((2-(trimethylsilyl)ethoxy)methyl)-1H-pyrazolo[4,3-b]pyridin-5-yl)-2-(3,5-difluorophenyl)ethyl)-2-(5-fluoro-1H-indol-3-yl)acetamide] | – | – | – | – | CC50 at 4 days ([2]; Table 1): 29200 nM; EC50 ([1]; Renilla, NL43, Table 1): 110 nM
